For one experiment, the target named is OX1 receptor (hOX1) (Homo sapiens, UniProt O43613). Description: radioligand binding assay, orexin-1 receptor (membranes from CHO cells). The conditions noted are these: CHO cell membranes, read-out: hOX1 hKi. Here is the method: In a typical experiment the OX1 and OX2 receptor antagonistic activity of the compounds of the present invention was determined in accordance with the following experimental method. For intracellular calcium measurements, Chinese hamster ovary (CHO) cells expressing the rat orexin-1 receptor or the human orexin-2 receptor, are grown in Iscove's modified DMEM containing 2 mM L-glutamine, […], 1% hypoxanthine-thymidine supplement, 100 U/ml penicillin, 100 ug/ml streptomycin and 10% heat-inactivated fetal calf serum (FCS). The cells are seeded at 20,000 cells/well into Becton-Dickinson black 384-well clear bottom sterile plates coated with poly-D-lysine. All reagents were from GIBCO-Invitrogen Corp. The seeded plates are incubated overnight at 37° C. and 5% CO2. Ala-6,12 human orexin-A as the agonist is prepared as a 1 mM stock solution in 1% bovine serum albumin (BSA) and diluted in assay buffer (HBSS containing 20 mM HEPES, 0.1% BSA and 2.5 mM probenecid, pH7.4) for use in the assay at a final concentration of 70 pM. Test compounds are prepared as 10 mM stock solution in DMSO, then diluted in 384-well plates, first in DMSO, then assay buffer. On the day of the assay, cells are washed 3 times with 100 ul assay buffer and then incubated for 60 min (37° C., 5% CO2) in 60 ul assay buffer containing 1 uM Fluo-4AM ester, 0.02% pluronic acid, and 1% BSA. The dye loading solution is then aspirated and cells are washed 3 times with 100 ul assay buffer. 30 ul of that same buffer is left in each well. Within the Fluorescent Imaging Plate Reader (FLIPR, Molecular Devices), test compounds are added to the plate in a volume of 25 ul, incubated for 5 min and finally 25 ul of agonist is added. Fluorescence is measured for each well at 1 second intervals for 5 minutes and the height of each fluorescence peak is compared to the height of the fluorescence peak induced by 70 pM Ala-6,12 orexin-A with buffer in place of antagonist. […] Alternatively, compound potency can be assessed by a radioligand binding assay (described in Bergman et. al. Bioorg. Med. Chem. Lett. 2008, 18, 1425-1430) in which the inhibition constant (Ki) is determined in membranes prepared from CHO cells expressing either the OX1 or OX2 receptor. The intrinsic orexin receptor antagonist activity of a compound which may be used in the present invention may be determined by these assays.

The target in experiment [1] is T1, human orexin-2 receptor (Homo sapiens (Human), UniProt O43614). Description: radioligand binding assay, orexin-2 receptor (membranes from CHO cells). The conditions noted are these: CHO cell membranes, read-out: hOX2 hKi. Here is the method:
(§1) The utility of the compounds in accordance with the present invention as orexin receptor OX1R and/or OX2R antagonists may be readily determined without undue experimentation by methodology well known in the art, including the “FLIPR Ca^2+ Flux Assay” (Okumura et al., Biochem. Biophys. Res. Comm. 280:976-981, 2001). In a typical experiment the OX1 and OX2 receptor antagonistic activity of the compounds of the present invention was determined in accordance with the following experimental method. For intracellular calcium measurements, Chinese hamster ovary (CHO) cells expressing the rat orexin-1 receptor or the human orexin-2 receptor, are grown in Iscove's modified DMEM containing 2 mM L-glutamine, […], 1% hypoxanthine-thymidine supplement, 100 U/ml penicillin, 100 ug/ml streptomycin and 10% heat-inactivated fetal calf serum (FCS). The cells are seeded at 20,000 cells/well into Becton-Dickinson black 384-well clear bottom sterile plates coated with poly-D-lysine. All reagents were from GIBCO-Invitrogen Corp. The seeded plates are incubated overnight at 37° C. and 5% CO2. Ala-6,12 human orexin-A as the agonist is prepared as a 1 mM stock solution in 1% bovine serum albumin (BSA) and diluted in assay buffer (HBSS containing 20 mM HEPES, 0.1% BSA and 2.5 mM probenecid, pH7.4) for use in the assay at a final concentration of 70 pM. Test compounds are prepared as 10 mM stock solution in DMSO, then diluted in 384-well plates, first in DMSO, then assay buffer. On the day of the assay, cells are washed 3 times with 100 ul assay buffer and then incubated for 60 min (37° C., 5% CO2) in 60 ul assay buffer containing 1 uM Fluo-4AM ester, 0.02% pluronic acid, and 1% BSA. The dye loading solution is then aspirated and cells are washed 3 times with 100 ul assay buffer. 30 ul of that same buffer is left in each well. Within the Fluorescent Imaging Plate Reader (FLIPR, Molecular Devices), test compounds are added to the plate in a volume of 25 ul, incubated for 5 min and finally 25 ul of agonist is added. Fluorescence is measured for each well at 1 second intervals for 5 minutes and the height of each fluorescence peak is compared to the height of the fluorescence peak induced by 70 pM Ala-6,12 orexin-A with buffer in place of antagonist. […] Alternatively, compound potency can be assessed by a radioligand binding assay (described in Bergman et. al. Bioorg. Med. Chem. Lett. 2008, 18, 1425-1430) in which the inhibition constant (Ki) is determined in membranes prepared from CHO cells expressing either the OX1 or OX2 receptor. The intrinsic orexin receptor antagonist activity of a compound which may be used in the present invention may be determined by these assays.

Another experiment deals with rat orexin-1 receptor (Rattus norvegicus (Rat), UniProt P56718). Description: FLIPR Ca2+ Flux Assay, CHO cells expressing rat orexin-1 receptor.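 Note: concentration giving 50% inhibition of the agonist-induced calcium response.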 The experiment is classed as cell-based. The conditions noted are these: 70 pM Ala-6,12 orexin-A agonist, read-out: hOX1R FLIPR IC50. The procedure: as §1
Experiment [2] addresses T1, human orexin-2 receptor. Description: FLIPR Ca2+ Flux Assay, CHO cells expressing human orexin-2 receptor. The conditions noted are these: 70 pM Ala-6,12 orexin-A agonist, read-out: hOX2R FLIPR IC50. In kind it is cell-based. Here is the method:
as §1

T1 sequence (O43614 whole entry): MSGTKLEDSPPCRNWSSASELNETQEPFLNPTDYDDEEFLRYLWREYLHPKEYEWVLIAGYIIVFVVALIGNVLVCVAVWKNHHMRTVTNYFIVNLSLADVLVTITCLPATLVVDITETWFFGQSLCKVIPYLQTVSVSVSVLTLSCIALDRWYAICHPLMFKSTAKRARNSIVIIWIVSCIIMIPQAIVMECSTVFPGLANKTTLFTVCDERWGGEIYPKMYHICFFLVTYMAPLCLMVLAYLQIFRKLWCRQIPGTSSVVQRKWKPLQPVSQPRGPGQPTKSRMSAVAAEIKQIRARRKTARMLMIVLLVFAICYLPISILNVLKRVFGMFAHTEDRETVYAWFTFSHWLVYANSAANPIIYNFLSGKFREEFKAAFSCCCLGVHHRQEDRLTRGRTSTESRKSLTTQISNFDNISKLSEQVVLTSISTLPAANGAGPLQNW
rat orexin-1 receptor, sequence (P56718 whole entry): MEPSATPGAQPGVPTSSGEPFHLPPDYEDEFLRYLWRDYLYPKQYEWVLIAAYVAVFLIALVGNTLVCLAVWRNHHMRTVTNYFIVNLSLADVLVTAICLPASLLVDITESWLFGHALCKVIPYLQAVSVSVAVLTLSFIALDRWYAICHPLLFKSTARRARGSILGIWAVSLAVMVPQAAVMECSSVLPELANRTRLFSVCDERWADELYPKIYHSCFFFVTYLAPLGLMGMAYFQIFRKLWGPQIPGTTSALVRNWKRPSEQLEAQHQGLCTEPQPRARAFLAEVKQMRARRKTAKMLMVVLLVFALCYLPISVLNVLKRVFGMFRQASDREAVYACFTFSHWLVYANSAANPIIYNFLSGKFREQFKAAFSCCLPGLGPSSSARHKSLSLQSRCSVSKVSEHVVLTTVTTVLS

Regarding `C[C@@H]1CC[C@@H](Oc2cc(C#N)ccn2)CN1C(=O)c1ccc(F)cc1-n1nccn1` [Example 8, 2-{[(3R,6R)-1-{[4-fluoro-2-(2H-1,2,3-triazol-2-yl)phenyl]carbonyl}-6-methylpiperidin-3-yl]oxy}pyridine-4-carbonitrile], the Ki was 2.91 µM on OX1 receptor (hOX1) and 3.5 nM at human orexin-2 receptor [1]. The values for the IC50 on rat orexin-1 receptor and on human orexin-2 receptor [2] were over 10 µM and 29 nM, respectively.
Regarding `C[C@@H]1CC[C@@H](Oc2cc(C#N)ccn2)CN1C(=O)c1ccccc1-n1ncnn1` [Example 30, 2-{[(3R,6R)-6-methyl-1-{[2-(2H-tetrazol-2-yl)phenyl]carbonyl}piperidin-3-yl]oxy}pyridine-4-carbonitrile], the concentration for half-maximal inhibition (IC50) is under 10 µM on rat orexin-1 receptor and 110 nM on human orexin-2 receptor [2].
For the compound `C[C@@H]1CC[C@@H](Oc2cc(C#N)ccn2)CN1C(=O)c1cccc(F)c1-c1ncccn1` [Example 33, 2-({(3R,6R)-1-[(3-fluoro-2-pyrimidin-2-ylphenyl)carbonyl]-6-methylpiperidin-3-yl}oxy)pyridine-4-carbonitrile], the Ki at OX1 receptor (hOX1) is 1.69 µM; on human orexin-2 receptor [1] it was 12.4 nM. The IC50 at rat orexin-1 receptor is over 10 µM; on human orexin-2 receptor [2], 52 nM.
`C[C@@H]1CC[C@@H](Oc2cc(C#N)ccn2)CN1C(=O)c1ccsc1-c1ncccn1` [Example 32, 2-({(3R,6R)-6-methyl-1-[(2-pyrimidin-2-ylthiophen-3-yl)carbonyl]piperidin-3-yl}oxy)pyridine-4-carbonitrile]: the Ki at human orexin-2 receptor [1] stood at 2.1 nM. Also, the 50% inhibitory concentration (IC50) on rat orexin-1 receptor turned out to be 6.74 µM; at human orexin-2 receptor [2], 44 nM.
Take `Cc1ccc(C(=O)N2C[C@H](Oc3cc(C#N)ccn3)CC[C@H]2C)c(-n2nccn2)n1` [Example 26, 2-{[(3R,6R)-6-methyl-1-{[6-methyl-2-(2H-1,2,3-triazol-2-yl)pyridin-3-yl]carbonyl}piperidin-3-yl]oxy}pyidine-4-carbonitrile]: the Ki at OX1 receptor (hOX1) stood at 9.44 µM; at human orexin-2 receptor [1] it was 162 nM.
Taken in the same sequence, the figures for `COc1ccc(C(=O)N2C[C@H](Oc3cc(C#N)ccn3)CC[C@H]2C)c(Cl)n1` [Example 28, 2-({(3R,6R)-1-[(2-chloro-6-methoxypyridin-3-yl)carbonyl]-6-methylpiperidin-3-yl}oxy)pyridine-4-carbonitrile] were 2.82 µM and 618 nM.
Taken in the same sequence, the figures for `Cc1nsc(-n2nccn2)c1C(=O)N1C[C@H](Oc2cc(C#N)ccn2)CC[C@H]1C` [Example 13, 2-{[(3R,6R)-6-methyl-1-{[3-methyl-5-(2H-1,2,3-triazol-2-yl)isothiazol-4-yl]carbonyl}piperidin-3-yl]oxy}pyridin-4-carbonitrile] were 34.5 µM and 137 nM.
Regarding `C[C@@H]1CC[C@@H](Oc2cc(C#N)ccn2)CN1C(=O)c1ccc(OCCO)cc1-n1nccn1` [Example 25, 2-{[(3R,6R)-1-{[4-(2-hydroxyethoxy)-2-(2H-1,2,3-triazol-2-yl)phenyl]carbonyl}-6-methylpiperidin-3-yl]oxy}pyridine-4-carbonitrile], the Ki on OX1 receptor (hOX1) is 9.44 µM; on human orexin-2 receptor [1] it was 10900 nM.
Consider `CCOc1ccc(C(=O)N2C[C@H](Oc3cc(C#N)ccn3)CC[C@H]2C)c(-n2nccn2)c1` [Example 21, 2-{[(3R,6R)-1-{[4-ethoxy-2-(2H-1,2,3-triazol-2-yl)phenyl]carbonyl}-6-methylpiperidin-3-yl]oxy}pyridine-4-carbonitrile], for which the Ki at OX1 receptor (hOX1) worked out at 23.2 µM; on human orexin-2 receptor [1], 3920 nM.
As for `C[C@@H]1CC[C@@H](Oc2cc(C#N)ccn2)CN1C(=O)c1ccc(OCF)cc1-n1nccn1` [Example 23, 2-{[(3R,6R)-1-{[4-(fluoromethoxy)-2-(2H-1,2,3-triazol-2-yl)phenyl]carbonyl}-6-methylpiperidin-3-yl]oxy}pyridine-4-carbonitrile], the results for the Ki at OX1 receptor (hOX1) and on human orexin-2 receptor [1] were 7.84 µM and 35 nM, respectively.
With `C[C@@H]1CC[C@@H](Oc2cc(C#N)ccn2)CN1C(=O)c1ccc(C(F)(F)F)nc1-n1nccn1` [Example 27, 2-{[(3R,6R)-6-methyl-1-{[2-(2H-1,2,3-triazol-2-yl)-6-(trifluoromethyl)pyridin-3-yl]carbonyl}piperidin-3-yl]oxy}pyridine-4-carbonitrile], the Ki on OX1 receptor (hOX1) came out at 9.44 µM; on human orexin-2 receptor [1], 1040 nM.
Taken in the same sequence, the figures for `C[C@@H]1CC[C@@H](Oc2cc(C#N)ccn2)CN1C(=O)c1cc(C(N)=O)ccc1-n1nccn1` [Example 18, 3-({(2R,5R)-5-[(4-cyanopyridin-2-yl)oxy]-2-methylpiperidin-1-yl}carbonyl)-4-(2H-1,2,3-triazol-2-yl)benzamide] were 1.29 µM and 134 nM.
As for `C[C@@H]1CC[C@@H](Oc2cc(C#N)ccn2)CN1C(=O)c1cn(C)nc1-n1nccn1` [Example 12, 2-{[(3R,6R)-6-methyl-1-{[1-methyl-3-(2H-1,2,3-triazol-2-yl)-1H-pyrazol-4-yl]carbonyl}piperidin-3-yl]oxy}pyridine-4-carbonitrile], the results for the Ki at OX1 receptor (hOX1) and at human orexin-2 receptor [1] were 5.64 µM and 151 nM, respectively.
In the case of `C[C@@H]1CC[C@@H](Oc2cc(C#N)ccn2)CN1C(=O)c1nscc1-n1nccn1` [Example 11, 2-{[(3R,6R)-6-methyl-1-{[4-(2H-1,2,3-triazol-2-yl)isothiazol-3-yl]carbonyl}piperidin-3-yl]oxy}pyridine-4-carbonitrile], the results for the Ki at OX1 receptor (hOX1) and at human orexin-2 receptor [1] were 13 µM and 94 nM, respectively.
Taken in the same sequence, the figures for `C[C@@H]1CC[C@@H](Oc2cc(C#N)ccn2)CN1C(=O)c1cc(Cl)ccc1-n1nccn1` [Example 16, 2-{[(3R,6R)-1-{[5-chloro-2-(2H-1,2,3-triazol-2-yl)phenyl]carbonyl}-6-methylpiperidin-3-yl]oxy}pyridine-4-carbonitrile] were 5.64 µM and 57 nM.
Taken in the same sequence, the figures for `C[C@@H]1CC[C@@H](Oc2cc(C#N)ccn2)CN1C(=O)c1ccc(OC(F)F)cc1-n1nccn1` [Example 24, 2-{[(3R,6R)-1-{[4-(difluoromethoxy)-2-(2H-1,2,3-triazol-2-yl)phenyl]carbonyl}-6-methylpiperidin-3-yl]oxy}pyridine-4-carbonitrile] were 23.9 µM and 79 nM.

Values taken from patent publication US20130102619A1, “2-PYRIDYLOXY-4-NITRILE OREXIN RECEPTOR ANTAGONISTS” (priority 2011, published 2013).
